Laboratory results from PubChem BioAssay AID250 (DTP/NCI, 2004).
Several values for one entry are separate records, joined by “and”; a condition that tells them apart may be missing. Equal values may be shown once. Inconclusive results and toxic doses are left out.

Tested on: BDF1 mice, L1210 leukemia sc, survival T/C
Assay: NCI In Vivo Anticancer Drug Screen. Data for tumor model L1210 Leukemia (subcutaneous) in B6D2F1 (BDF1) mice
Conditions: higher = longer survival
Method in brief: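 Read-out: T/C ratio, i.e. survival or tumor size in treated mice over that in vehicle-treated controls, from mice bearing transplantable tumors.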

Compound: O=C1NC(O)CCN1C1OC(CO)C(O)C1O (stereo not drawn)
- T/C (endpoint: median survival time, dose: 125.0 mg/kg/injection, schedule: Q06HX018 (sc), vehicle: saline): 102 % of control
- T/C (endpoint: median survival time, dose: 125.0 mg/kg/injection, schedule: Q## X018 (sc), vehicle: saline): 102 % of control
- T/C (endpoint: median survival time, dose: 250.0 mg/kg/injection, schedule: Q06HX018 (sc), vehicle: saline): 102 % of control
- T/C (endpoint: median survival time, dose: 250.0 mg/kg/injection, schedule: Q## X018 (sc), vehicle: saline): 102 % of control
- T/C (endpoint: median survival time, dose: 500.0 mg/kg/injection, schedule: Q06HX018 (sc), vehicle: saline): 108 % of control
- T/C (endpoint: median survival time, dose: 500.0 mg/kg/injection, schedule: Q## X018 (sc), vehicle: saline): 108 % of control
- T/C (endpoint: median survival time, dose: 1000.0 mg/kg/injection, schedule: Q06HX018 (sc), vehicle: saline): 107 % of control
- T/C (endpoint: median survival time, dose: 1000.0 mg/kg/injection, schedule: Q## X018 (sc), vehicle: saline): 107 % of control

Compound: CC(=O)Nc1ccc2c(Nc3ccc(NS(C)(=O)=O)cc3)c3ccccc3nc2c1
- T/C (endpoint: mean survival time, dose: 1.5 mg/kg/injection, schedule: Q01DX009 (sc), vehicle: saline): 114 % of control
- T/C (endpoint: mean survival time, dose: 3.0 mg/kg/injection, schedule: Q01DX009 (sc), vehicle: saline): 111 % of control
- T/C (endpoint: mean survival time, dose: 6.25 mg/kg/injection, schedule: Q01DX009 (sc), vehicle: saline): 121 % of control
- T/C (endpoint: mean survival time, dose: 12.5 mg/kg/injection, schedule: Q01DX009 (sc), vehicle: saline): 182 % of control

Compound: C[n+]1c2ccccc2c(Nc2ccc(NS(=O)(=O)CCCCN=C(N)N)cc2)c2ccc(N)cc21
- T/C (endpoint: median survival time, dose: 1.5 mg/kg/injection, schedule: Q01DX009 (ip), vehicle: water): 110 % of control
- T/C (endpoint: median survival time, dose: 3.0 mg/kg/injection, schedule: Q01DX009 (ip), vehicle: water): 120 % of control
- T/C (endpoint: median survival time, dose: 6.0 mg/kg/injection, schedule: Q01DX009 (ip), vehicle: water): 151 % of control
- T/C (endpoint: median survival time, dose: 12.0 mg/kg/injection, schedule: Q01DX009 (ip), vehicle: water): 173 % of control

Compound: CN(Cc1cnc2nc(N)nc(N)c2n1)c1cccc(C(=O)NC(CCC(=O)O)C(=O)O)c1 (stereo not drawn)
- T/C (endpoint: mean survival time, dose: 1.0 mg/kg/injection, schedule: Q01DX009 (ip), vehicle: sodium bicarbonate): 111 % of control
- T/C (endpoint: mean survival time, dose: 2.0 mg/kg/injection, schedule: Q01DX009 (ip), vehicle: sodium bicarbonate): 107 % of control
- T/C (endpoint: mean survival time, dose: 4.0 mg/kg/injection, schedule: Q01DX009 (ip), vehicle: sodium bicarbonate): 111 % of control
- T/C (endpoint: mean survival time, dose: 4.0 mg/kg/injection, schedule: Q04DX003 (ip), vehicle: sodium bicarbonate): 113 % of control
- T/C (endpoint: mean survival time, dose: 8.0 mg/kg/injection, schedule: Q01DX009 (ip), vehicle: sodium bicarbonate): 111 % of control
- T/C (endpoint: mean survival time, dose: 8.0 mg/kg/injection, schedule: Q04DX003 (ip), vehicle: sodium bicarbonate): 111 % of control
- T/C (endpoint: mean survival time, dose: 16.0 mg/kg/injection, schedule: Q01DX009 (ip), vehicle: sodium bicarbonate): 114 % of control
- T/C (endpoint: mean survival time, dose: 16.0 mg/kg/injection, schedule: Q04DX003 (ip), vehicle: sodium bicarbonate): 108 % of control
- T/C (endpoint: mean survival time, dose: 32.0 mg/kg/injection, schedule: Q04DX003 (ip), vehicle: sodium bicarbonate): 108 % of control
- T/C (endpoint: mean survival time, dose: 64.0 mg/kg/injection, schedule: Q04DX003 (ip), vehicle: sodium bicarbonate): 119 % of control

Compound: CC(=O)Nc1ccc2nc3ccc(NC(C)=O)cc3[n+](-c3ccccc3)c2c1
- T/C (endpoint: median survival time, dose: 23.0 mg/kg/injection, schedule: Q01DX Z (sc), vehicle: methylcellulose (MC)): 105 % of control
- T/C (endpoint: median survival time, dose: 65.0 mg/kg/injection, schedule: Q01DX Z (sc), vehicle: methylcellulose (MC)): 105 % of control

Compound: C[C@H](CN1CC(=O)NC(=O)C1)N1CC(=O)NC(=O)C1
- T/C (endpoint: median survival time, dose: 8.0 mg/kg/injection, schedule: Q01DX009 (ip), vehicle: water): 104 % of control
- T/C (endpoint: median survival time, dose: 16.0 mg/kg/injection, schedule: Q01DX009 (ip), vehicle: water): 119 % of control
- T/C (endpoint: median survival time, dose: 32.0 mg/kg/injection, schedule: Q01DX009 (ip), vehicle: water): 119 % of control and 124 % of control
- T/C (endpoint: median survival time, dose: 256.0 mg/kg/injection, schedule: Q01DX009 (ip), vehicle: water): 118 % of control
- T/C (endpoint: median survival time, dose: 512.0 mg/kg/injection, schedule: Q01DX009 (ip), vehicle: water): 113 % of control

Compound: O=C1C(NC(=O)C2CCCCC2)=C(N2CC2)C(=O)C(NC(=O)C2CCCCC2)=C1N1CC1
- T/C (endpoint: median survival time, dose: 180.0 mg/kg/injection, schedule: Q01DX Z (sc), vehicle: carboxymethylcellulose (CMC)): 100 % of control
- T/C (endpoint: median survival time, dose: 300.0 mg/kg/injection, schedule: Q01DX Z (sc), vehicle: carboxymethylcellulose (CMC)): 100 % of control
- T/C (endpoint: median survival time, dose: 500.0 mg/kg/injection, schedule: Q01DX Z (sc), vehicle: carboxymethylcellulose (CMC)): 100 % of control
- T/C (endpoint: median survival time, dose: 833.0 mg/kg/injection, schedule: Q01DX Z (sc), vehicle: carboxymethylcellulose (CMC)): 100 % of control
- T/C (endpoint: median survival time, dose: 1388.0 mg/kg/injection, schedule: Q01DX Z (sc), vehicle: carboxymethylcellulose (CMC)): 100 % of control
